According to PubChem BioAssay AID624254 (Broad Institute, 2012):
Calls of active or inactive are those of the source. The rule behind the calls is not given here.

Test: Quorum luxo inducers, light production, v cholerae bh1651 luxod47e, confirmatory dose response (AID 624254)
Conditions: V. cholerae BH1651 luxOD47E, luciferase light induction, 6 h; at 50 µM (top of the series)

Structure (SMILES)	activation (light increase)
Cn1ccnc1S(=O)(=O)Nc1ccc(OC(F)(F)F)cc1	inactive
Cn1cnc(S(=O)(=O)Nc2ccccc2F)c1	inactive
CCOC(=O)c1c(NC(=S)Nc2ccc(Cl)cc2)sc(C)c1C	inactive
Clc1ccc(-c2cc(COc3ccc4ccccc4c3)no2)cc1	inactive
Cc1noc(C)c1NC(=O)Nc1cccc2c1O[C@H](CN(C)S(=O)(=O)c1ccccc1)[C@@H](C)CN([C@H](C)CO)C2=O	inactive
CCCn1nnnc1NCc1ccc(N2CCCC2)cc1	inactive
Cc1ccc(C)c(NC(=O)CN(C)C(=O)CCN2C(=O)c3ccccc3C2=O)c1	inactive
COCCNC(=S)N(CCCO)Cc1cc2cc3c(cc2[nH]c1=O)OCCO3	inactive
CCc1cccc(C)c1N(C(=O)Cn1c(CO)nc2ccccc21)C(C)COC (stereo not given)	inactive
CCN(CC(=O)Nc1c(F)cccc1F)C(=O)c1ccc(C)c(S(=O)(=O)N2CCCCC2)c1	inactive
O=C(COC(=O)/C=C/c1cccc(F)c1)NC1CCCC1	inactive
CSc1ccccc1NC(=O)COc1ccc(S(=O)(=O)N2CCCC2)cc1	inactive
COc1ccc(-c2cc(CCCC(=O)NCCc3cc(OC)ccc3OC)no2)cc1	inactive
COc1ccc2c(c1)CCC(C)N2S(=O)(=O)c1ccc(C2CNC(=O)C2)cc1 (stereo not given)	inactive
Cc1cc(OC(F)F)ccc1NC(=S)NCCc1ccccc1	inactive
O=S(=O)(Nc1cccnc1)c1ccc(Oc2ccccc2)cc1	inactive
O=C(NCC1CCCO1)C1CCN(C(=O)c2ccc(Cl)cc2)CC1 (stereo not given)	inactive
O=C(COC(=O)C1CCC1)Nc1ccc(Oc2ccccc2)cc1	inactive
C=Cn1c(C(=O)O)ccc1-c1ccc(CC)cc1	inactive
COCCSc1ccccc1C(=O)Nc1nnc(COC)s1	inactive
COC(=O)c1c(-c2ccc(Br)cc2)noc1N	inactive
CCCc1cc(=O)[nH]c(Nc2ccc(N3CCCCC3)cc2)n1	inactive
CCc1ccc(OCCNC(=O)c2cccs2)cc1	inactive
O=C(NCc1nc(-c2ccccc2)no1)c1cccs1	inactive
O=C(O)c1[nH]c2ccccc2c1NS(=O)(=O)Cc1ccccc1	inactive

Structure (SMILES)	activation (light increase)
O=C(/C=C/c1ccc(OCCCF)cc1)NCc1ccc(Cl)cc1	inactive
COc1cccc(CN(C)C(=O)CSC(C)C(=O)Nc2cc(C)on2)c1OC (stereo not given)	inactive
Cn1cnc(S(=O)(=O)Nc2ccc(Cl)cc2)c1	inactive
CCCn1nnnc1SCC(=O)c1ccc2c(c1)OCCO2	inactive
Cc1onc(-c2ccccc2)c1C(=O)n1cccn1	inactive
O=C(CN1C(=O)CSC1=O)NC1CCCCC1	inactive
Cc1cccc(C(=O)OCC(=O)NCC(C)C)c1O	inactive
Cc1ccc(C)n1-c1sc2c(c1C#N)CCC(C)C2 (stereo not given)	inactive
CCCn1nnnc1NCc1ccc(C(C)C)cc1	inactive
CN(c1ccccc1)S(=O)(=O)c1nnc(NC(=O)C2CCCCC2)s1	inactive
CCCn1nnnc1NCc1ccc(OC)cc1	inactive
CCOC(=O)CSc1nc(C)cc(C)c1C#N	inactive
CC(C)OC(=O)CSc1nnc(SCc2cccc3ccccc23)s1	inactive
CCCCN(C)CCNC(=O)c1ccc2c(c1)NC(=O)C(N1CCCCC1)S2 (stereo not given)	inactive
CCOC(=O)C1CCN(C(=O)Nc2ccc3c(c2)nc(C)n3C)CC1	inactive
CCOC(=O)c1c(-c2ccccc2)csc1NC(=O)c1nn(CC)cc1Br	inactive
CCN(C(=O)COc1ncnc2ccc(Br)cc12)C1CCS(=O)(=O)C1 (stereo not given)	inactive
CCOC(=O)c1c(C)[nH]c(C(=O)COC(=O)C2(C)CC2(Cl)Cl)c1C (stereo not given)	inactive
CC(=O)c1ccc(NC(=O)COc2ccccc2C(=O)Nc2ccccc2)cc1	inactive
CCOC(=O)C1CCCc2c1[nH]c1c(C(=O)O)cccc21 (stereo not given)	inactive
CCOc1ccc(/C(O)=C2/C(=O)C(=O)N(CCOCCO)C2c2ccccn2)cc1 (stereo not given)	inactive
O=C(Nc1ccc(Cl)c(Cl)c1)Nc1ccccc1C(=O)O	inactive
COC(=O)c1nnn(-c2nonc2N)c1CSc1nc2ccccc2s1	inactive
CC(=O)Nc1ccc(Nc2nc(C)nc3c2oc2ccccc23)cc1	inactive
Cc1ccc(OCCCC(=O)N(C)CC(=O)Nc2ccccc2Cl)cc1	inactive

Structure (SMILES)	activation (light increase)
O=C(CNc1cc(S(=O)(=O)N2CCOCC2)ccc1N1CCCC1)Nc1ccc(Cl)cc1	inactive
CCCCNC(=O)COC(=O)c1ccc(N(C)C)cc1	inactive
Cn1cnc(S(=O)(=O)Nc2ccc(OC(F)(F)F)cc2)c1	inactive
COCc1nnc(NS(=O)(=O)c2ccc(Br)cc2)s1	inactive
Cc1cccc(N2CCN(C(=O)Cn3cccc3C(=O)c3ccccc3)CC2)c1C	inactive
CCn1c(SCC(=O)Nc2ccc3c(c2)OCCO3)nnc1-c1ccccn1	inactive
CCOC(=O)C1CCCN(Cc2cccc(Cl)c2)C1 (stereo not given)	inactive
COc1cccc(CNC(=O)C2CSC3(C)CCC(=O)N23)c1 (stereo not given)	inactive
CC(=O)c1cc2c(cc1NS(=O)(=O)c1ccccc1)OCO2	inactive
CCOC(=O)N1CCC(NC(=O)C2CCN(C(=O)N3CC(C)Oc4ccc(C)cc43)CC2)CC1 (stereo not given)	inactive
Cc1occc1-c1nnc(SCC(=O)NCc2cccs2)n1-c1ccc(F)cc1	inactive
COc1cc(C(C)=O)ccc1OCC(=O)Nc1cc(Cl)ccc1-n1cncn1	inactive
COc1ccc(Cc2nnc(NC(=O)C3CC(=O)N(c4ccccc4C)C3)s2)cc1OC (stereo not given)	inactive
Cc1noc(C)c1NC(=O)Nc1cccc2c1O[C@H](CN(C)S(=O)(=O)c1cccs1)[C@H](C)CN([C@@H](C)CO)C2=O	inactive
COc1ccc(NS(=O)(=O)c2cccc(C(=O)N3CCCC(C)C3)c2)cc1 (stereo not given)	inactive
CC(C)N1CCc2c(sc(NC(=O)c3ccc4ccccc4c3)c2C(N)=O)C1	inactive
Cc1ccc(C(=O)OCC(=O)NCCNC(=O)COC(=O)c2ccc(C)s2)s1	inactive
COC(=O)C1CCN(C(=O)CN(C)Cc2ccc(C(C)(C)C)cc2)CC1	inactive
CCOC(=O)Cn1nc(C)n(-c2ccc(C(C)C)cc2)c1=O	inactive
COC(=O)c1cc(C(=O)OCC(=O)c2ccc3c(c2)NC(=O)CO3)cc([N+](=O)[O-])c1	inactive
COc1ccc(NC(=O)CN(C)C(=O)c2cccc(S(=O)(=O)N3CCN(C)CC3)c2)cc1	inactive
COC(=O)c1ccc(-c2nc3cc(Cl)c(N)cc3s2)cc1	inactive
CC(C)c1ccc(C(=O)OCC(=O)NC2CCCC2)cc1	inactive
CCOC(=O)c1sc2cc([N+](=O)[O-])cc(SCCO)c2c1N	inactive
CC1(C)Nc2ccc(O)cc2-c2c1ssc2=S	inactive

Structure (SMILES)	activation (light increase)
CCOc1ccc(C(=O)OCC(=O)N2CCCC2)cc1	inactive
O=C(COC(=O)CNC(=O)c1ccco1)NCCN1C(=O)CSC1=O	inactive
CC(=O)c1cccc(NC(=O)COC(=O)Cc2ccc(Cl)cc2)c1	inactive
O=C(O)c1cn[nH]c1-n1cnnn1	inactive
CCCCN(Cc1nc2ccccc2c(=O)[nH]1)C(=O)CN1C(=O)NC2(CCCCC2)C1=O	inactive
CN(C)S(=O)(=O)c1cccc(NC(=O)COC(=O)c2ccc(Br)o2)c1	inactive
CC(C)CC(=O)N1CCN(Cc2ccccc2Br)CC1	inactive
CC(C)NC(=O)c1ccc(-c2cccc(C(F)(F)F)c2)o1	inactive
O=C(O)c1cc(CN2CCOCC2)oc1-c1ccccc1	inactive
O=C(c1cc(-c2cccs2)nn1-c1ccccc1)N1CCN(S(=O)(=O)c2ccccc2)CC1	inactive
Cc1ccc(C)c(OCCC(=O)OCC(=O)NC2CC2)c1	inactive
COc1ccc(NC(=O)COc2cccc3c2CCNC3=O)cc1	inactive
CCCCOC(=O)n1c(=O)oc2ccccc21	inactive
CCCCNC(=O)Nc1cc(C)on1	inactive
COc1ccc(S(=O)(=O)Nc2cccc(S(=O)(=O)N3CCCC3)c2)cc1OC	inactive
COC(=O)c1cc(Br)ccc1OC(=O)c1cccnc1	inactive
COCCCn1c(=S)[nH]c2ccc(N3CCOCC3)cc2c1=O	inactive
Cc1nc(=O)c(-c2ccccc2)c(C)n1CCCCCC(=O)O	inactive
CCc1sc(N(C(=O)Cc2ccccc2)c2cccc(F)c2)nc1-c1ccc(C)cc1	inactive
CCOC(=O)Cc1c(C)[nH]c(=S)[nH]c1=O	inactive
O=C(NCC(F)(F)F)Nc1ncccn1	inactive
CC(=O)c1c(N2CCC(C(N)=O)CC2)nc(=S)n(-c2ccccc2)c1C	inactive
COc1ccc(CCNC(=O)c2nnn(-c3ccc4c(c3)OCCO4)c2N)cc1OC	inactive
Cc1noc(C)c1NC(=O)Nc1cccc2c1O[C@@H](CN(C)S(=O)(=O)c1cccs1)[C@H](C)CN([C@@H](C)CO)C2=O	inactive
CC(=O)N1CCN(C(=O)c2cc(-c3ccc(Cl)s3)nc3ccccc23)CC1	inactive
